For the experiment, the target named is human PAD4 (hPAD4) (Homo sapiens, UniProt Q9UM07). The experiment in a line: RFMS human PAD4 functional assay (rapid-fire mass spectrum). It is filed as biochemical. Conditions: 5 nM hPAD4 enzyme, 250 μM BAEE, 50 μM Calcium; 30 min preincubation, 90 min reaction at 37° C. The method in brief: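 PAD4 (10 nM) preincubated 30 min with compound (top final 50 μM), then BAEE substrate added in pH 7.5 HEPES buffer with DTT, 50 μM calcium, TPEN; 90 min at 37° C. After TCA quench, citrulline derivatized with phenyl glyoxal (4 mM final, 30 min, 37° C) and quantified by RapidFire MS against internal standard.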
human PAD4 (hPAD4), sequence (Q9UM07 whole entry): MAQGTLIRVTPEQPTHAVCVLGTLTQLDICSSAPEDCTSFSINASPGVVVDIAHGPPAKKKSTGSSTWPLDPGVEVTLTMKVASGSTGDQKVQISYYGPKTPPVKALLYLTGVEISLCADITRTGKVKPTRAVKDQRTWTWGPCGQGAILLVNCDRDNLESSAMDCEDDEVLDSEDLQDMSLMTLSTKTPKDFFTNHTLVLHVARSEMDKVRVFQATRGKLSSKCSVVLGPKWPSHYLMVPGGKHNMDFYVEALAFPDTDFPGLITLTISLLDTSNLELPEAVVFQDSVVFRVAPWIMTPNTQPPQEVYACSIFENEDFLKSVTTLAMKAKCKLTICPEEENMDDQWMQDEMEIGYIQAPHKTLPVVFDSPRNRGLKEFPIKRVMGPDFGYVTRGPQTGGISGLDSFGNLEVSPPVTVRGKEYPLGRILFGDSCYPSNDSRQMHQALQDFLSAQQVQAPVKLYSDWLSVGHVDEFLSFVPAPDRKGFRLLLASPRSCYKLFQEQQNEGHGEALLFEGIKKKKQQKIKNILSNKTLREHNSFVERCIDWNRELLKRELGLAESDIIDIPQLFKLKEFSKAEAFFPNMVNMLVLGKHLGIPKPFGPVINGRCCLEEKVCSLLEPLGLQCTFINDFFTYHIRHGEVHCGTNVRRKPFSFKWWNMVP

pIC50: −log10 of the molar value.

The pIC50 is the negative decadic logarithm of the IC50, by convention in mol/L.

In the case of `COc1cc(C(=O)N2CC3CCC2[C@@H]3N)cc2nc(-c3cc4ccccc4n3CC3CC3)n(C[C@H]3CCN(c4cncc(C#N)c4)C3)c12` (stereo partly drawn) [Example 225, 5-[(3S)-3-({5-[(1R,4R,7R)-7-amino-2-azabicyclo[2.2.1]heptane-2-carbonyl]-2-[1-(cyclopropylmethyl)-1H-indo1-2-yl]-7-methoxy-1H-1,3-benzodiazol-1-yl}methyl)pyrrolidin-1-yl]pyridine-3-carbonitrile], the pIC50 was 7.59.
With `COc1cc(C(=O)N2C[C@H]3CC[C@@H]2[C@@H]3N)cc2nc(-c3cc4cccnc4n3CC3CC3)n(C3CN(S(=O)(=O)CC4CC4)C3)c12` [Example 331, (1R,4R,7R)-2-[1-(1-cyclopropylmethanesulfonylazetidin-3-yl)-2-[1-(cyclopropylmethyl)-1H-pyrrolo[2,3-b]pyridin-2-yl]-7-methoxy-1H-1,3-benzodiazole-5-carbonyl]-2-azabicyclo[2.2.1]heptan-7-amine], the pIC50 is 6.72.
Consider `COc1cc(C(=O)N2C[C@H]3CC[C@@H]2[C@@H]3N)cc2nc(-c3cc4ccccc4n3CC3CC3)n(CC3CN(C(=O)c4nnn(C)n4)C3)c12` [Example 142, (1R,4R,7R)-2-{2-[1-(cyclopropylmethyl)-1H-indol-2-yl]-7-methoxy-1-{[1-(2-methyl-2H-1,2,3,4-tetrazole-5-carbonyl)azetidin-3-yl]methyl}-1H-1,3-benzodiazole-5-carbonyl}-2-azabicyclo[2.2.1]heptan-7-amine], for which the pIC50 was 7.85.
With `COc1ncccc1-n1cc(Cn2c(-c3cc4ccccc4n3CC3CC3)nc3cc(C(=O)N4CC5CCC4[C@@H]5N)cc(OC)c32)cn1` (stereo partly drawn) [Example 403, (7R)-2-{2-[1-(cyclopropylmethyl)-1H-indol-2-yl]-7-methoxy-1-{[1-(2-methoxypyridin-3-yl)-1H-pyrazol-4-yl]methyl}-1H-1,3-benzodiazole-5-carbonyl)-2-azabicyclo[2.2.1]heptan-7-amine], the pIC50 is 7.18.
With `COc1cc(C(=O)N2C[C@H](N)C[C@@H](F)C2)cc2nc(-c3cc4cccnc4n3CC3CC3)n(CC3(F)CN(C(=O)c4ccccc4)C3)c12` [Example 468, (3R,5R)-1-{1-[(1-benzoyl-3-fluoroazetidin-3-yl)methyl]-2-[1-(cyclopropylmethyl)-1H-pyrrolo[2,3-b]pyridin-2-yl]-7-methoxy-1H-1,3-benzodiazole-5-carbonyl}-5-fluoropiperidin-3-amine] the figure was 7.00; with `COc1cc(C(=O)N2CC(CN)C2)cc2nc(-c3cc4ccccc4n3CC3CC3)n(Cc3cnn(C)c3)c12` [Example 291, (1-{2-[1-(cyclopropylmethyl)-1H-indol-2-yl]-7-methoxy-1-[(1-methyl-1H-pyrazol-4-yl)methyl]-1H-1,3-benzodiazole-5-carbonyl}azetidin-3 yl)methanamine], 5.72.
As to `COc1cc(C(=O)N2CC3CCC2[C@@H]3N)cc2nc(-c3cc4cccnc4n3CC3CC3)n(C3CCN(C(=O)c4ccnc(Cl)c4)CC3)c12` (stereo partly drawn) [Example 239, (1R,4R.,7R)-2-{1-[1-(2-chloropyridine-4-carbonyl)piperidin-4-yl]-2-[1-(cyclopropylmethyl)-1H-pyrrolo[2,3-b]pyridin-2-yl]-7-methoxy-1H-1,3-benzodiazole-5-carbonyl}-2-azabicyclo[2.2.1]heptan-7-amine], the pIC50 was 6.03.
`COc1cc(C(=O)N2C[C@H]3CC[C@@H]2[C@@H]3N)cc2nc(-c3cc4cccnc4n3CC3CC3)n(CC3CN(C(C)=O)C3)c12` [Example 187, 1-[3-({5-[(1R,4R,7R)-7-amino-2-azabicyclo[2.2.1]heptane-2-carbonyl]-2-[1-(cyclopropylmethyl)-1H-pyrrolo[2,3-b]pyridin-2-yl]-7-methoxy-1H-1,3-benzodiazol-1-yl}methyl)azetidin-1-yl]ethan-1-one]: the pIC50 is 6.45.
With `COc1cc(C(=O)N2C[C@H]3CC[C@@H]2[C@@H]3N)cc2nc(-c3cc4cccnc4n3CC3CC3)n(C[C@H]3CCN(c4cncnc4C#N)C3)c12` [Example 206, 5-[(3S)-3-({5-[(1R,4R,7R)-7-amino-2-azabicyclo[2.2.1]heptane-2-carbonyl]-2-[1-(cyclopropylmethyl)-1H-pyrrolo[2,3-b]pyridin-2-yl]-7-methoxy-1H-1,3-benzodiazol-1-yl}methyl)pyrrolidin-1-yl]pyrimidine-4-carbonitrile] the figure was 7.33; with `COc1cc(C(=O)N2C[C@H]3CC[C@@H]2[C@@H]3N)cc2nc(-c3cc4cccnc4n3C)n(C[C@@H]3CCN(c4ncccn4)C3)c12` [Example 232, (1R,4R,7R)-2-(7-methoxy-2-{1-methyl-1H-pyrrolo[2,3-b]pyridin-2-yl}-1-{[(3S)-1-(pyrimidin-2-yl)pyrrolidin-3-yl]methyl}-1H-1,3-benzodiazole-5-carbonyl)-2-azabicyclo[2.2.1]heptan-7-amine], 6.51.
As for `COc1cc(C(=O)N2CC3CCC2[C@@H]3N)cc2nc(-c3cc4ccccc4n3CC3CC3)n(Cc3cnn(C)n3)c12` (stereo partly drawn) [Example 505, (7R)-2-{2-[1-(cyclopropylmethyl)-1H-indol-2-yl]-7-methoxy-1-[(2-methyl-2H-1,2,3-triazol-4-yl)methyl]-1H-1,3-benzodiazole-5-carbonyl}-2-azabicyclo[2.2.1]heptan-7-amine], the pIC50 is 6.79.
With `CCc1ccccc1-c1nc2cc(C(=O)N3C[C@H]4CC[C@@H]3[C@@H]4N)cc(OC)c2n1CC1CN(c2cncc(C#N)c2)C1` [Example 312, 5-[3-({5-[(1R,4R,7R)-7-amino-2-azabicyclo[2.2.1]heptane-2-carbonyl]-2-(2-ethylphenyl)-7-methoxy-1H-1,3-benzodiazol-1-yl}methyl)azetidin-1-yl]pyridine-3-carbonitrile] the figure was 6.42; with `COc1cc(C(=O)N2CC3CCC2[C@@H]3N)cc2nc(-c3cc4cccnc4n3CC3CC3)n(Cc3ccnn3C)c12` (stereo partly drawn) [Example 496, (7R)-2-{2-[1-(cyclopropylmethyl)-1H-pyrrolo[2,3-b]pyridin-2-yl]-7-methoxy-1-[(1-methyl-1H-pyrazol-5-yl)methyl]-1H-1,3-benzodiazole-5-carbonyl}-2-azabicyclo[2.2.1]heptan-7-amine], 6.99.
With `COc1cc(C(=O)N2CC3CCC2[C@@H]3N)cc2nc(-c3cc4cccnc4n3CC3CC3)n([C@H]3C[C@H](NC(=O)c4cc[nH]c(=O)c4)C3)c12` (stereo partly drawn) [Example 299, 2-oxo-N-[(1r,3r)-3-{5-[(1R,4R,7R)-7-amino-2-azabicyclo[2.2.1]heptane-2-carbonyl]-2-[1-(cyclopropylmethyl)-1H-pyrrolo[2,3-b]pyridin-2-yl]-7-methoxy-1H-1,3-benzodiazol-1-yl}cyclobutyl]-1,2-dihydropyridine-4-carboxamide] the figure was 6.22; with `COc1cc(C(=O)N2C[C@H]3CC[C@@H]2[C@@H]3N)cc2nc(-c3cc4cccnc4n3CC3CC3)n(CC3CN(c4ncccn4)C3)c12` [Example 30, (1R,4R,7R)-2-{2-[1-(cyclopropylmethyl)-1H-pyrrolo[2,3-b]pyridin-2-yl]-7-methoxy-1-{[1-(pyrimidin-2-yl)azetidin-3-yl]methyl}-1H-1,3-benzodiazole-5-carbonyl}-2-azabicyclo[2.2.1]heptan-7-amine], 7.08; with `COc1cc(C(=O)N2C[C@H]3CC[C@@H]2[C@@H]3N)cc2nc(-c3cc4ccccc4n3C)n(CC3CNC3)c12` [Example 308, (1R,4R,7R)-2-{1-[(azetidin-3-yl)methyl]-7-methoxy-2-(1-methyl-1H-indol-2-yl)-1H-1,3-benzodiazole-5-carbonyl}-2-azabicyclo[2.2.1]heptan-7-amine], 6.27.
With `COc1cc(C(=O)N2C[C@H]3CC[C@@H]2[C@@H]3N)cc2nc(-c3cc4cccnc4n3CC3CC3)n(C3CN(c4cncnc4)C3)c12` [Example 76, (1R,4R,7R)-2-{2-[1-(cyclopropylmethyl)-1H-pyrrolo[2,3-b]pyridin-2-yl]-7-methoxy-1-[1-(pyrimidin-5-yl)azetidin-3-yl]-1H-1,3-benzodiazole-5-carbonyl}-2-azabicyclo[2.2.1]heptan-7-amine] the figure was 6.53; with `COc1cc(C(=O)N2CC3CCC2[C@@H]3N)cc2nc(-c3cc4cccnc4n3CC3CC3)n(CC3CCN(c4cnc(C#N)nc4)CC3)c12` (stereo partly drawn) [Example 221, 5-[4-({5-[(1R,4R.,7R)-7-amino-2-azabicyclo[2.2.1]heptane-2-carbonyl]-2-[1-(cyclopropylmethyl)-1H-pyrrolo[2,3-b]pyridin-2-yl]-7-methoxy-1H-1,3-benzodiazol-1-yl}methyl)piperidin-1-yl]pyrimidine-2-carbonitrile], 7.02; with `COc1cc(C(=O)N2CC3CCC2[C@@H]3N)cc2nc(-c3cc4ccccc4n3CC3CC3)n(CC3CN(C(=O)[C@@H]4C[C@H]4c4ccccc4)C3)c12` (stereo partly drawn) [Example 162, (1R,4R,7R)-2-{2-[1-(cyclopropylmethyl)-1H-indol-2-yl]-7-methoxy-1-({1-[(1R,2R)-2-phenylcyclopropanecarbonyl]aze-tidin-3-yl}methyl)-1H-1,3-benzodiazole-5-carbonyl}-2-azabicyclo[2.2.1]heptan-7-amine], 7.60.
As to `COc1cc(C(=O)N2C[C@H]3CC[C@@H]2[C@@H]3N)cc2nc(-c3cc4cccnc4n3C)n(CC3CN(c4nccnc4C#N)C3)c12` [Example 39, 3-[3-({5-[(1R,4R,7R)-7-amino-2-azabicyclo[2.2.1]heptane-2-carbonyl]-7-methoxy-2-{1-methyl-1H-pyrrolo[2,3-b]pyridin-2-yl}-1H-1,3-benzodiazol-1-yl}methyl)azetidin-1-yl]pyrazine-2-carbonitrile], the pIC50 is 7.03.
As for `COc1cc(C(=O)N2C[C@H]3CC[C@@H]2[C@@H]3N)cc2nc(-c3cc4ccccc4n3C)n(CC3CN(c4cncnc4C#N)C3)c12` [Example 44, 5-[3-({5-[(1R,4R,7R)-7-amino-2-azabicyclo[2.2.1]heptane-2-carbonyl]-7-methoxy-2-(1-methyl-1H-indol-2-yl)-1H-1,3-benzodiazol-1-yl}methyl)azetidin-1-yl]pyrimidine-4-carbonitrile], the pIC50 is 6.95.

The record behind these values is patent publication US12692254B2, “Benzimidazole inhibitors of PAD enzymes” (BRISTOL-MYERS SQUIBB COMPANY, priority 2018, dated 2026).
